Data taken from patent publication US20260034094A1, “COMPOSITIONS AND METHODS FOR INDUCING FERROPTOSIS” (Kojin Therapeutics, Inc., priority 2022, published 2026).
pEC50, pIC50: −log10 of the molar value. Several values for one entry are separate records, joined by “and”; a condition that tells them apart may be missing. Identical values can stand only once. Like-named read-outs stand apart in the source and are kept apart here.

What was measured:
[1] = target: human recombinant GCL (Homo sapiens (Human), UniProt P48506); assay: GCL enzyme profiling assay (ADP-Glo luminescence); type: biochemical; settings: for pIC50: read-out: GCL IC50
Method: The GCL enzyme assay was run in 50 mM HEPES, pH 7.5, containing 150 mM NaCl, 30 mM MgCl2, 0.5 mM EDTA, 1 mM DTT, 0.1 mg/mL BSA, and 0.02% or in the present case 0.2% F-127 in a total assay volume of 10 μL or 10 mL. Compound in pure DMSO was stamped in assay plates (Greiner black 384-well) or appropriate containers using a D300e digital dispenser (TECAN) and the final DMSO concentration was normalized to 1%. A 5 mL, or in the present case, 5 μL mixture of human recombinant GCL (final concentration: 5 nM) and ATP (final concentration: 0.6 mM) was added and the solution was incubated at room temperature (22° C.) for 1 h. The GCL enzyme reaction was initiated by addition of a 5 μL mixture of mono g-glutamate or in the present example, monosodium glutamate (final concentration: 1 mM) and a-aminobutyrate or α-aminobutyrate (final concentration: 1.2 mM). The reaction was stopped after 1 h or in the present case, 2 h by addition of 5 mL, or in the present case, 5 μL ADP GLO Reagent (Promega). The resulting solution was incubated for 2 h at room temperature. This was then followed by addition of 5 mL, or in the present case, 5 μL ADP GLO Detection. After incubation at room temperature for 30 min, the plates were read on a plate reader (PheraStar) using a luminescence protocol to quantify the GCL enzyme activity from each reaction solution. The data was analyzed using a four-parameter logistic equation to calculate IC50.

[2] = tested on: RKN cells; assay: RKN cell profiling assay (cell viability, CellTiter-Glo); type: cell-based; settings: read-out: Cell Killing EC50
Method: RKN cells were suspended in assay medium (F-12 medium supplemented with 10% FBS and penicillin/streptomycin) and seeded at 1,000 cells per well (30 μL total volume) in opaque white 384-well plates (Corning). Cells were allowed to adhere for 24 h at 37° C. (95% humidity, 5% CO2) and then exposed to compounds disclosed herein for 72 h, or in the present case, 96 h. DMSO stock solutions of compounds were added to cells using a D300e Digital Dispenser (Tecan). The final DMSO concentration in each well was normalized to 0.5% (v/v) after compound treatment. Cell viability was measured using CellTiter-Glo (Promega). After incubation for 15 min at room temperature, luminescence was measured using a PHERAstar FSX microplate reader (BMG Labtech). Ferroptosis rescue experiments were performed as described previously using cells treated with ferrostatin-1 (fer-1, 1.5 μM) when seeding assay plates. Dose-response data were analyzed to determine EC50 values with GraphPad Prism 9 software using a four-parameter logistic equation or CDD Vault (Collaborative Drug Discovery) using the Levenberg-Marquardt algorithm.

[3] = human recombinant GCL 5 nM, 1 h preincubation with ATP

human recombinant GCL, sequence (P48506 whole entry): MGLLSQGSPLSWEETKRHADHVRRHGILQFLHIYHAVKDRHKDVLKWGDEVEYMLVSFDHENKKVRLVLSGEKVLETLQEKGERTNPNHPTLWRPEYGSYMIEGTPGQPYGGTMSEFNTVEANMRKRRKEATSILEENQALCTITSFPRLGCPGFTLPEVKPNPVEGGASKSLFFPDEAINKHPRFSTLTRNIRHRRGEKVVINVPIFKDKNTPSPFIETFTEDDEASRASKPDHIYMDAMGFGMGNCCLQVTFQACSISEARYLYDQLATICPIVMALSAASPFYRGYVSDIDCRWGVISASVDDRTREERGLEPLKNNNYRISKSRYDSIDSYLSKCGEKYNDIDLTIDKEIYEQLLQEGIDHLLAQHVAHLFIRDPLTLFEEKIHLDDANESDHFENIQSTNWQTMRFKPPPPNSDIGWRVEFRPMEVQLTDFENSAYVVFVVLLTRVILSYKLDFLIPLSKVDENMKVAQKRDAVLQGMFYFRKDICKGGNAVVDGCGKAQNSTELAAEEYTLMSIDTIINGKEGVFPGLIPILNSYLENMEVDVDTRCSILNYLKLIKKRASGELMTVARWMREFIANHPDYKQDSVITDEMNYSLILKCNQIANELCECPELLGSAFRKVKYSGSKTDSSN

Structure (SMILES) | pIC50 ([1]; human recombinant GCL, ADP-Glo) | pIC50 [1, 3] | pEC50 ([2]; cell viability) | pEC50 ([2]; 96 h, 96 h exposure) | also measured
CC1(CCCS(=N)(=O)CC[C@H](N)C(=O)O)COC1 (stereo partly drawn) [Compound 312] | 2.70 to 4.70 |  | > 3.00 |  | 
N=S(=O)(CCC(c1ccc2ccccc2c1)C(F)(F)F)CC[C@H](N)C(=O)O (stereo partly drawn) [Compound 310] | ≥ 4.70 |  | > 3.00 |  | 
N=S(=O)(CCC(c1ccc(C#Cc2ccccc2)cc1)C(F)(F)F)CC[C@H](N)C(=O)O (stereo partly drawn) [Compound 215, (2S)-2-amino-4-(4,4,4-trifluoro-3-(4-(phenylethynyl)phenyl)butylsulfonimidoyl)butanoic acid] | ≥ 4.70 |  | > 3.00 |  | 
N=S(=O)(CCCC1CC1)CC[C@H](N)C(=O)O (stereo partly drawn) [Compound 134, (2S)-2-amino-4-(3-cyclopropylpropylsulfonimidoyl)butanoic acid] |  | 2.70 to 4.70 |  | ≤ 3.00 | 
CC(C)(C)CCS(=N)(=O)CC[C@H](N)C(=O)NC(CO)CO (stereo partly drawn) [Compound 126] |  | < 2.70 |  | ≤ 3.00 | 
N=S(=O)(CCC1CCCC1)CC[C@H](N)C(=O)O (stereo partly drawn) [Compound 141] |  | ≥ 4.70 |  | > 3.00 | 
CC(C)(C)CCS(=N)(=O)CC[C@H](N)C(=O)NCCC(C)(C)O (stereo partly drawn) [Compound 125] |  | < 2.70 |  | > 3.00 | 
Cc1noc(C)c1CCS(=N)(=O)CC[C@H](N)C(=O)O (stereo partly drawn) [Compound 35] |  | 2.70 to 4.70 |  | ≤ 3.00 | 
N=S(=O)(CCC(c1ccccc1Cl)C(F)(F)F)CC[C@H](N)C(=O)O (stereo partly drawn) [Compound 309] | ≥ 4.70 |  | > 3.00 |  | 
COC(CC[S@@](=N)(=O)CC[C@H](N)C(=O)O)C(F)(F)F (stereo partly drawn) [Compound 177] |  | < 2.70 |  |  | pEC50 ([2]; 96 h exposure): ≤ 3.00
N=S(=O)(CCOC(F)F)CC[C@H](N)C(=O)O (stereo partly drawn) [Compound 170] |  | 2.70 to 4.70 |  | ≤ 3.00 | 
CC(C)(CCS(=N)(=O)CC[C@H](N)C(=O)O)c1cnoc1 (stereo partly drawn) [Compound 63] |  | 2.70 to 4.70 |  | ≤ 3.00 | 
N=S(=O)(CCc1ccccc1C1CC1)CC[C@H](N)C(=O)O (stereo partly drawn) [Compound 34] |  | 2.70 to 4.70 |  | ≤ 3.00 | 
CCCCOC(=O)[C@@H](N)CCS(=N)(=O)CCC(C)(C)c1ccccc1 (stereo partly drawn) [Compound 87] |  | 2.70 to 4.70 |  | > 3.00 | 
N=S(=O)(CCCC(F)(F)F)CC[C@H](N)C(=O)OCC1CCCCC1 (stereo partly drawn) [Compound 81] |  | 2.70 to 4.70 |  | > 3.00 | 
CCC(CC(F)(F)F)CS(=N)(=O)CC[C@H](N)C(=O)O (stereo partly drawn) [Compound 172] |  | 2.70 to 4.70 |  | ≤ 3.00 | 
CCCCOC(=O)[C@@H](N)CCS(=N)(=O)CCc1ccccc1C(F)(F)F (stereo partly drawn) [Compound 94] |  | 2.70 to 4.70 |  | > 3.00 | 
CC(O)(CCS(=N)(=O)CC[C@H](N)C(=O)O)C(F)(F)F (stereo partly drawn) [Compound 174, (2S)-2-amino-4-(4,4,4-trifluoro-3-hydroxy-3-methylbutylsulfonimidoyl)butanoic acid] |  | 2.70 to 4.70 |  | > 3.00 | 
N=S(=O)(CCCC(F)(F)F)CC[C@H](N)C(=O)O (stereo partly drawn) [Compound 150, (2S)-2-amino-4-(4,4,4-trifluorobutylsulfonimidoyl)butanoic acid] |  | ≥ 4.70 |  | > 3.00 | 
CCCc1ccc(C(CCS(=N)(=O)CC[C@H](N)C(=O)O)C(F)(F)F)cc1 (stereo partly drawn) [Compound 223] | ≥ 4.70 |  | > 3.00 |  | 
COC(=O)C(CCS(=N)(=O)CC[C@H](N)C(=O)O)C(F)(F)F (stereo partly drawn) [Compound 305] | ≥ 4.70 |  | ≤ 3.00 |  | 
CC(C)(C)CCS(=N)(=O)CC[C@H](N)C(=O)NCc1ccccc1 (stereo partly drawn) [Compound 122] |  | < 2.70 |  | > 3.00 | 
CCCCS(=N)(=O)CC[C@H](NC)C(=O)O (stereo partly drawn) [Compound 159] |  | < 2.70 |  | ≤ 3.00 | 
N=S(=O)(CC[C@H](N)C(=O)O)CCC1(F)CCC1 (stereo partly drawn) [Compound 173] |  | 2.70 to 4.70 |  | > 3.00 | 
Cc1c(F)cccc1CCS(=N)(=O)CC[C@H](N)C(=O)O (stereo partly drawn) [Compound 26] |  | ≥ 4.70 |  | > 3.00 | 
CC(C)(CCS(=N)(=O)CC[C@H](N)C(=O)O)n1ncc(-c2ccccc2)n1 (stereo partly drawn) [Compound 208, (2S)-2-amino-4-(3-methyl-3-(4-phenyl-2H-1,2,3-triazol-2-yl)butylsulfonimidoyl)butanoic acid] |  | ≥ 4.70 and 2.70 to 4.70 |  | > 3.00 | IC50 ([1]; human recombinant GCL 5 nM, 1 h preincubation with ATP, read-out: GCL IC50 (mM), individual values in parentheses): 0.0204 mM and 0.02 mM
CNC(=O)C1(CCS(=N)(=O)CC[C@H](N)C(=O)O)CCC1 (stereo partly drawn) [Compound 192] |  | 2.70 to 4.70 |  | ≤ 3.00 | 
CC(C)(CCS(=N)(=O)CC[C@H](N)C(=O)O)c1ccccc1F (stereo partly drawn) [Compound 59] |  | ≥ 4.70 |  | > 3.00 | 

Further lines, with some results ahead:

pIC50 ([1]; human recombinant GCL, ADP-Glo) | pIC50 [1, 3] | Structure (SMILES) | pEC50 ([2]; cell viability) | pEC50 ([2]; 96 h, 96 h exposure) | also measured
≥ 4.70 |  | N=S(=O)(CC[C@H](N)C(=O)O)CCC1(n2nc3ccccc3n2)CCC1 (stereo partly drawn) [Compound 421] | ≤ 3.00 |  | 
≥ 4.70 |  | COc1cc(OC(F)(F)F)ccc1-c1ccc(C(O)(CCS(=N)(=O)CC[C@H](N)C(=O)O)C(F)(F)F)cc1 (stereo partly drawn) [Compound 440] | > 3.00 |  | 
≥ 4.70 |  | N=S(=O)(CC[C@H](N)C(=O)O)CCC(O)(c1ccc(-c2ccc(O)c(F)c2)cc1)C(F)(F)F (stereo partly drawn) [Compound 453] | ≤ 3.00 |  | 
≥ 4.70 |  | N[C@@H](CCS(=O)(=O)NCC(O)(c1ccc(-c2ccc(Cl)cc2Cl)cn1)C(F)(F)F)C(=O)O (stereo partly drawn) [Compound 513, (2S)-2-amino-4-(N-(2-(5-(2,4-dichlorophenyl)pyridin-2-yl)-3,3,3-trifluoro-2-hydroxypropyl)sulfamoyl)butanoic acid] | ≤ 3.00 |  | 
2.70 to 4.70 |  | Cc1cc(F)ccc1-c1cnc(C(O)(CCS(=N)(=O)CC[C@H](N)C(=O)O)C(F)(F)F)nc1 (stereo partly drawn) [Compound 473] | > 3.00 |  | 
2.70 to 4.70 |  | N=S(=O)(CC[C@H](N)C(=O)O)CCC(O)(c1cccnc1)C(F)(F)F (stereo partly drawn) [Compound 361] | ≤ 3.00 |  | 
≥ 4.70 |  | N=S(=O)(CCC(n1nc2ccccc2n1)C(F)(F)F)CC[C@H](N)C(=O)O (stereo partly drawn) [Compound 410] | ≤ 3.00 |  | 
≥ 4.70 |  | N=S(=O)(CC[C@H](N)C(=O)O)CCC(O)(c1ccc(-c2ccccc2)cn1)C(F)(F)F (stereo partly drawn) [Compound 459, (2S)-2-amino-4-(4,4,4-trifluoro-3-hydroxy-3-(5-phenylpyridin-2-yl)butylsulfonimidoyl)butanoic acid] | > 3.00 |  | 
≥ 4.70 |  | CC(C)C(O)(CCS(=N)(=O)CC[C@H](N)C(=O)O)C(F)(F)F (stereo partly drawn) [Compound 353] | ≤ 3.00 |  | 
≥ 4.70 |  | N=[S@@](=O)(CC[C@H](N)C(=O)O)CC[C@@](O)(c1ccccc1)C(F)(F)F [Compound 347, (S)-2-amino-4-((R,3R)-4,4,4-trifluoro-3-hydroxy-3-phenylbutylsulfonimidoyl)butanoic acid] | > 3.00 |  | 
≥ 4.70 |  | C[C@@](O)(CCS(=N)(=O)CC[C@H](N)C(=O)O)C(F)(F)F (single isomer, unassigned) [Compound 322] | > 3.00 |  | 
< 2.70 |  | C[C@](O)(CCS(=N)(=O)CC[C@H](N)C(=O)O)C(F)(F)F (single isomer, unassigned) [Compound 325] | ≤ 3.00 |  | 
≥ 4.70 |  | Cc1cc(C(O)(CCS(=N)(=O)CC[C@H](N)C(=O)O)C(F)(F)F)ccc1-c1ccc(O)c(F)c1 (stereo partly drawn) [Compound 455] | ≤ 3.00 |  | 
≥ 4.70 |  | N=[S@SP2](=O)(CCC(N)C(=O)O)CCC(O)(c1ccc(Nc2nccs2)cc1)C(F)(F)F (stereo not drawn) [compound 505] | ≤ 3.00 |  | 
≥ 4.70 |  | N=S(=O)(CC[C@H](N)C(=O)O)CCC1(c2ccc(-c3ccc(O)cc3Cl)cc2)CCC1 (stereo partly drawn) [Compound 401] | ≤ 3.00 |  | 
≥ 4.70 |  | N=S(=O)(CCC(c1ccc2[nH]ncc2c1)C(F)(F)F)CC[C@H](N)C(=O)O (stereo partly drawn) [Compound 386, (2S)-2-amino-4-(4,4,4-trifluoro-3-(1H-indazol-5-yl)butylsulfonimidoyl)butanoic acid] | > 3.00 |  | 
2.70 to 4.70 |  | CC(C)(C)OC(=O)[C@@H](N)CC[S@@](=N)(=O)CC[C@@H](O)C(F)(F)F [Compound 491, tert-butyl (S)-2-amino-4-((R,3R)-4,4,4-trifluoro-3-hydroxybutylsulfonimidoyl)butanoate] | > 3.00 |  | 
2.70 to 4.70 |  | N=S(=O)(CC[C@H](N)C(=O)O)CCC(O)(C1[C@@H](c2ccccc2)[C@H]1c1ccccc1)C(F)(F)F (stereo partly drawn) [compound 503] | ≤ 3.00 |  | 
